Patent US12616203B2, “Use of 3-isoxazolidinones compounds as selective herbicides” (FMC Corporation, priority 2014, dated 2026)

Legend:
[1] = tested on: weeds; corn, wheat, cotton, cowpea, and bush bean; assay: Ex42 PRE greenhouse; type: in vivo; settings: crop and rate in the words
Description: Thereafter flats were watered and fertilized routinely.

[2] = tested on: Ivyleaf morningglory; assay: Ex17 PRE 2,4 DC + isoxaflutole, % control 28 DAT, Colby; type: in vivo, Ipomoea hederacea
Experimental: In this example a study was conducted to determine weed efficacy and sugarcane injury when 2,4 DC or isoxaflutole are applied either alone or tank-mix as preemergence against the weeds: Ivyleaf morningglory (Ipomoea hederacea, IPOHE), hairy beggartickss (Bidens pilosa, BIDPI), yellow nutsedge (Cyperus esculentus, CYPES), large crabgrass (Digitaria sanguinalis, DIGSA), and redroot pigweed (Amaranthus retroflexus, AMARE). The crop tested in this study was Sugarcane (var. CTC 20).
To determine weed efficacy and sugarcane selectivity, 2,4 DC (SC 36%) and isoxaflutole (Balance Flexx®, 20%) were applied PRE either alone or as tank-mix partners at rates mentioned below. 2,4 DC was applied at 500, 750, and 1000 g ai/ha while isoxaflutole was applied at 80, 100, and 120 g ai/ha. […] Treatments were applied PRE to sugarcane (var. CTC 20), ivyleaf morningglory, hairy beggarticks, yellow nutsedge, large crabgrass, and redroot pigweed. […] Soil was watered before application and watered lightly after application. Flats were watered and fertilized routinely after treatment application.

[3] = tested on: Pennsylvania smartweed; assay: Ex33 PRE 2,4-DC + fluthiacet-methyl + pyroxasulfone, % control 28 DAT, Colby; type: in vivo, Polygonum pensylvanicum
Description: ANTHEM® (fluthiacet-methyl, 0.69% plus pyroxasulfone, 22.61%) was included as a standard at labeled rate, Fluthiacet-methyl at 4.9 g ai/ha and pyroxasulfone at 165 g ai/ha. […] The following weeds were screened, Palmer amaranth, Pennsylvania smartweed, velvetleaf, green foxtail, morningglory, Italian ryegrass, prickly sida, and yellow nutsedge. Crops screened were cotton, lentil, mung bean, bush bean, and cowpea. […] Thereafter flats were watered and fertilized routinely.

[4] = tested on: yellow nutsedge (YN); assay: PRE greenhouse, 2,4-DC + sulfentrazone, % control; type: in vivo, Cyperus esculentus; settings: 28 DAT, g ai/ha by row: r8-16 2,4-DC 50/100/200 (3 rows each) + sulfentrazone 105/210/315 (cycling)
Experimental: Test compositions containing 2,4-DC Example 1B and sulfentrazone (Spartan® 4F, 39.6% active ingredient, FMC Corp.) and mixtures of 2-(2,4-dichlorophenyl)methyl-4,4-dimethyl-3-isoxazolidinone and sulfentrazone, were diluted with water to provide the appropriate test rate concentration.
The test weeds were Pennsylvania smartweed (PS) (Polygonum pennsylvanicum), Palmer amaranth (PA) (Amaranthus palmeri), velvetleaf (VL) (Abutilon theophrasti), green foxtail (GF) (Setaria viridis), morningglory (MG) (Ipomoea spp.), yellow nutsedge (YN) (Cyperus esculentus), purple nutsedge (PN) (Cyperus rotundus), and benghal dayflower (BD) (Commelina benghalensis). Crops included in the evaluation were corn, wheat, and cowpea.
For pre-emergence testing, four disposable fiber flats (6″ by 10″) for each rate of application of each herbicide solution were filled with top soil, to which seeds of each species were planted in furrows made by a template pressed on the top of the soil. The furrows with crop/weed seeds were covered with soil and were watered well before application of the test compounds. Flats designated for treatment were placed in a spray chamber having a static platform and a movable sprayer and height of the spray nozzle was 10.5 inches above the soil level. Once the sprayer was calibrated using water for spray volume of 30 gallons per acre, flats were sprayed with sprayer at a speed to receive a coverage equivalent of 30 gallons per acre.
The application rates are those shown in Table 3, 3A, an d 3B below for the individual herbicidal solutions and the herbicide compositions of the present invention. The pre-emergence flats were immediately placed in the greenhouse and watered lightly after treatment for herbicide activation. Thereafter they were regularly watered and feterilized for the duration of the test. The control of weeds was evaluated in each experimental test at 28 days after treatment (DAT), 14 DAT for crops. The results, shown as an average of the replications, were compared with results observed in untreated control flats in the same tests. Percent weed control was determined by a method similar to the 0 to 100 rating system disclosed in “Research Methods in Weed Science,” 2nd ed., B. Truelove, Ed.; Southern Weed Science Society; Auburn University, Auburn, Ala., 1977.

[5] = tested on: Cheat; assay: Ex18 PRE 2,4-DC + clomazone, % control 28 DAT, Colby; type: in vivo, Bromus secalinus
Description: Additional treatments included application of metazachlor (Butisan®, 43.1%) at 750 g ai/ha, napropamide (Devrinol DF®, 50%) at 1260 g ai/ha, and dimethachlor (Teridox®, 48%) at 1000 g ai/ha. […] Treatments were applied just after the seeding of annual bluegrass, cheat, wild oat, quackgrass, field violet, blackgrass, littleseed canarygrass, silky windgrass, yellow foxtail, and goosegrass. […] Flats were watered and fertilized routinely after treatment application. Each treatment was replicated three times.

CC1(C)CON(Cc2ccc(Cl)cc2Cl)C1=O [2,4-DC, 2-(2,4-dichlorophenyl)methyl-4,4-dimethyl-3-isoxazolidinone]
crop safety in words [1]: applied alone was safe at all rates on all crops at 14 DAT | X ([2]; 2,4-DC alone 500 g ai/ha): 67% | X ([2]; 2,4-DC alone 750 g ai/ha): 78% | X ([2]; 2,4-DC alone 1000 g ai/ha): 88% | X ([3]; 2,4-DC alone 31 g ai/ha): 10% | X ([3]; 2,4-DC alone 63 g ai/ha): 23% | X ([3]; 2,4-DC alone 125 g ai/ha): 57% | X ([3]; 2,4-DC alone 250 g ai/ha): 100% | X ([3]; 2,4-DC alone 375 g ai/ha): 99% | % Control YN ([4]; r17-19 2,4-DC 50/100/200, r20-22 sulfentrazone 105/210/315, 50 g ai/ha): 10% | % Control YN ([4]; r17-19 2,4-DC 50/100/200, r20-22 sulfentrazone 105/210/315, 100 g ai/ha): 12% | % Control YN ([4]; r17-19 2,4-DC 50/100/200, r20-22 sulfentrazone 105/210/315, 200 g ai/ha): 13% | X ([5]; 2,4-DC alone 125 g ai/ha): 6% | X ([5]; 2,4-DC alone 170 g ai/ha): 11% | X ([5]; 2,4-DC alone 210 g ai/ha): 12% | X ([5]; 2,4-DC alone 250 g ai/ha): 25%
